Patent US8299056B2 (Signal Pharmaceuticals, LLC, priority 2008, dated 2012)
Read-outs that look alike come from different tables or passages of the source.

Biological target: T1, Syk (Homo sapiens, UniProt P43405)
T1 construct: purchased Carna Biosciences
Assay: Syk HTRF assay
Format: biochemical
Method in brief: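 Read-out is the 665 nm/615 nm time-resolved fluorescence ratio after EDTA stop and Eu-anti-phosphotyrosine plus streptavidin-DyLight 647 detection. Reaction ran 1 h at room temperature with start mix of 87.5 μM ATP and 80 nM substrate peptide in pH 7.6 HEPES/MgCl2 buffer.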

[1] = IC50 activity level, read-out: Activity Level
[2] = activity levels A-D, read-out: Activity Level (IC50 in the Syk HTRF assay)
[3] = read-out: Activity Level (Syk HTRF assay IC50)

SMILES | IC50 [1] | IC50 [2] | IC50 [3]
CNC(=O)c1ccc(Nc2nc3cccc(N[C@H]4CC[C@@H](N)CC4)n3n2)cc1 [Example 360, 4-(5-(cis-4-aminocyclohexylamino)-[1,2,4]triazolo[1,5-a]pyridin-2-ylamino)-N-methylbenzamide] |  | 500 to 1000 nM | 
CNC(=O)c1ccc(Nc2nc3cccc(CC4CCC(N)CC4)n3n2)cc1 (stereo not drawn) [Example 262, 4-(5-((4-aminocyclohexyl)methyl)-[1,2,4]triazolo[1,5-a]pyridin-2-ylamino)-N-methylbenzamide] |  | 0.005 to 250 nM | 
CC1(C)C(=O)Nc2cc(Nc3nc4cccc(CC5CCOC5)n4n3)ccc21 (single isomer, unassigned; enantiomer 1) [Example 561, 3,3-dimethyl-6-(5-((tetrahydrofuran-3-yl)methyl)-[1,2,4]triazolo[1,5-a]pyridin-2-ylamino)indolin-2-one (enantiomer 1)] | 0.005 to 250 nM |  | 
COCc1nc2ccc(Nc3nc4cccc(N[C@H]5CC[C@@H](O)CC5)n4n3)cc2[nH]1 [Example 196, cis-4-(2-(2-(methoxymethyl)-1H-benzo[d]imidazol-6-ylamino)-[1,2,4]triazolo[1,5-a]pyridin-5-ylamino)cyclohexyl] |  |  | 0.005 to 250 nM
c1cc(NC2CCOCC2)n2nc(Nc3ccc(-c4nc[nH]n4)cc3)nc2c1 [Example 565, N^2-(4-(1H-1,2,4-triazol-3-yl)phenyl)-N^5-(tetrahydro-2H-pyran-4-yl)-[1,2,4]triazolo[1,5-a]pyridine-2,5-diamine] | 1000 to 10000 nM |  | 
CN(CCO)c1cccc2nc(Nc3ccc4c(c3)NC(=O)C4(C)C)nn12 [Example 153, 6-(5-((2-hydroxyethyl)(methyl)amino)-[1,2,4]triazolo[1,5-a]pyridin-2-ylamino)-3,3-dimethylindolin-2-one] |  |  | 0.005 to 250 nM
CNC(=O)c1ccc(Nc2nc3cccc(N4CCCC4)n3n2)cc1 [Example 251, N-methyl-4-(5-(pyrrolidin-1-yl)-[1,2,4]triazolo[1,5-a]pyridin-2-ylamino)benzamide] |  | 250 to 500 nM | 

Second part, the molecule after the results:

IC50 [1] | IC50 [2] | IC50 [3] | SMILES
0.005 to 250 nM |  |  | OCc1nc2ccc(-c3cccc4nc(Nc5ccc(C(F)(F)F)cc5)nn34)cc2[nH]1 [Example 409, (6-(2-(4-(trifluoromethyl)phenylamino)-[1,2,4]triazolo[1,5-a]pyridin-5-yl)-1H-benzo[d]imidazol-2-yl)methanol]
 |  | 0.005 to 250 nM | c1ccc(-c2cccc3nc(Nc4ccc5c(c4)CNC5)nn23)cc1 [compound 53]
0.005 to 250 nM |  |  | Fc1ccc(Nc2nc3cccc(-c4ccc5cn[nH]c5c4)n3n2)cc1 [Example 436, N-(4-fluorophenyl)-5-(1H-indazol-6-yl)-[1,2,4]triazolo[1,5-a]pyridin-2-amine]
 |  | 0.005 to 250 nM | NC(=O)c1ccc(Nc2nc3cccc(-c4ccccc4)n3n2)cc1 [Example 88]
 | 0.005 to 250 nM |  | FC(F)(F)c1ccc(Nc2nc3cccc(CN4CCNCC4)n3n2)cc1 [Example 393, 5-(piperazin-1-ylmethyl)-N-(4-(trifluoromethyl)phenyl)-[1,2,4]triazolo[1,5-a]pyridin-2-amine]
